Experimental data from ChEMBL document CHEMBL5137064, “Therapeutic Potential and Activity Modulation of the Protein Lysine Deacylase Sirtuin 5” (J Med Chem, 2022).
*1 amine or outer side, *2 acyl side, *3 side chain or, on linkers, in order; H or OH if unused. Where a SMILES comes first, the peptide text is derived from it. Bridges are numbered along the chain shown (N, C = ends). [ ]: non-standard residue; d: D form. The star is where a group is joined. X1 = O=C(O)CCNC(=S)NCCCC[C@H](N[*:1])C(=O)[*:2]; Heptanedioyl = O=C(CCCCCC(=O)[*:2])[*:1]; X2 = CC(CC(=O)*)(C(=O)O)c1ccccc1; X3 = CCCCC(CC(=O)*)C(=O)O; Bz = O=C(c1ccccc1)*

Legend:
[1] = molecular target: T1, NAD-dependent protein deacylase sirtuin-5, mitochondrial (Homo sapiens, UniProt Q9NXA8); experiment: Binding affinity to SIRT5 (unknown origin) assessed as desuccinylation activity by measuring inhibition constant
[2] = molecular target: T1, NAD-dependent protein deacylase sirtuin-5, mitochondrial; experiment: Inhibition of SIRT5 desuccinylase activity (unknown origin) using succinyl-lysine as substrate
[3] = molecular target: T1, NAD-dependent protein deacylase sirtuin-5, mitochondrial; experiment: Inhibition of SIRT5 deglutarylase activity (unknown origin)
[4] = molecular target: T1, NAD-dependent protein deacylase sirtuin-5, mitochondrial; experiment: Binding affinity to SIRT5 (unknown origin) assessed as deglutarylase activity by measuring inhibition constant
[5] = molecular target: T1, NAD-dependent protein deacylase sirtuin-5, mitochondrial; experiment: Inhibition of human recombinant SIRT5 using fluorogenic Benzyl-Lys(Succinyl)-AMC as substrate incubated for 2 hrs measured by fluoroscence based microplate reader method
[6] = molecular target: T1, NAD-dependent protein deacylase sirtuin-5, mitochondrial; experiment: Inhibition of SIRT5 activity (unknown origin)
[7] = molecular target: T2, NAD-dependent protein deacetylase sirtuin-1 (Homo sapiens, UniProt Q96EB6); experiment: Inhibition of His6-tagged SIRT1 (unknown origin) desuccinylase activity incubated for 10 mins by HPLC based assay
T2 sequence (Q96EB6 whole entry): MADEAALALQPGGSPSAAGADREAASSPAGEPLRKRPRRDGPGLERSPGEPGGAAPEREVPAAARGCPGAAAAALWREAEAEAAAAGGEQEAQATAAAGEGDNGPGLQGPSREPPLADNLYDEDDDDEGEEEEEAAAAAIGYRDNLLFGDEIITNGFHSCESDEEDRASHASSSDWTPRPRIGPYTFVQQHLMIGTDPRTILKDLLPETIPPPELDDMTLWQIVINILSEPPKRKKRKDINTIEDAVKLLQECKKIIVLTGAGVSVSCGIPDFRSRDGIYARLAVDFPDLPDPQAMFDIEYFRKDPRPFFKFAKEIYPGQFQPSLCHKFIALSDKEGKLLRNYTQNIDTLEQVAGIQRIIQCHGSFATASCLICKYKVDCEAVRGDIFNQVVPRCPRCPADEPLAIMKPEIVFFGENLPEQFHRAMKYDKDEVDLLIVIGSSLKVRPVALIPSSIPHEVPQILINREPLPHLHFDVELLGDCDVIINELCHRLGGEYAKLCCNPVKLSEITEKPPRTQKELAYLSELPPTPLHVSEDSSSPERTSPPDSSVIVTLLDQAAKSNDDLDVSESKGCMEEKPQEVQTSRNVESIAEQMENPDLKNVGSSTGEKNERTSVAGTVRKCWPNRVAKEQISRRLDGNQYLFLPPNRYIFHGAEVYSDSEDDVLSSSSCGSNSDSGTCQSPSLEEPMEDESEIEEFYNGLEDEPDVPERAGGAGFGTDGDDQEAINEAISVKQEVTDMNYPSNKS

[8] = molecular target: T3, NAD-dependent protein deacetylase sirtuin-2 (Homo sapiens, UniProt Q8IXJ6); experiment: Inhibition of His6-tagged SIRT2 (unknown origin) desuccinylase activity incubated for 12 mins by HPLC based assay
T3 sequence (Q8IXJ6 whole entry): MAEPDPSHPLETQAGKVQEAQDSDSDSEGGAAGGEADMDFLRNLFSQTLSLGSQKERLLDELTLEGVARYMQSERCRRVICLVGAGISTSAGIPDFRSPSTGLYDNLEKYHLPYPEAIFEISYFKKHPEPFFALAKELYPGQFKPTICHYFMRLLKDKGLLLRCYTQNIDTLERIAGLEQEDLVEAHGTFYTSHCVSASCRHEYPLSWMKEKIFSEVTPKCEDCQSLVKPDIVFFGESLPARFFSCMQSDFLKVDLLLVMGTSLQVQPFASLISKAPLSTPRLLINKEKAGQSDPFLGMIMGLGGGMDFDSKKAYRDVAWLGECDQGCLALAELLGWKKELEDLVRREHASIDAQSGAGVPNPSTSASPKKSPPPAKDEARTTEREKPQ

[9] = molecular target: T4, NAD-dependent protein deacetylase sirtuin-3, mitochondrial (Homo sapiens, UniProt Q9NTG7); experiment: Inhibition of His6-tagged SIRT3 (unknown origin) desuccinylase activity incubated for 10 mins by HPLC based assay
T4 sequence (Q9NTG7 whole entry): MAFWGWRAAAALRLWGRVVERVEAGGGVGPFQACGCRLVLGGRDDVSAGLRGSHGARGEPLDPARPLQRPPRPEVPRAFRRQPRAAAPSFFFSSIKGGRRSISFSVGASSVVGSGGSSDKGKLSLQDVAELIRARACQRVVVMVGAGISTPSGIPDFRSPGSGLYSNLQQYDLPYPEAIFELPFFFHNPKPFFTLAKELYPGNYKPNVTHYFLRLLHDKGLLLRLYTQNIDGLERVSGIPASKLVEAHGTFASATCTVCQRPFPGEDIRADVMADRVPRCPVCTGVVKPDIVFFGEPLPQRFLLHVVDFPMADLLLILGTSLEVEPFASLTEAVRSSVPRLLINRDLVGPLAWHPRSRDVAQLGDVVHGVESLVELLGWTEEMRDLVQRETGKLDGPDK

[10] = molecular target: NAD-dependent protein deacylase sirtuin-6 (Homo sapiens, UniProt Q8N6T7); experiment: Inhibition of His6-tagged SIRT6 (unknown origin) desuccinylase activity incubated for 12 mins by HPLC based assay
[11] = molecular target: T1, NAD-dependent protein deacylase sirtuin-5, mitochondrial; experiment: Inhibition of GST-tagged SIRT5 desuccinylase activity (unknown origin) incubated for 5 mins by HPLC based assay
[12] = molecular target: T5, NAD-dependent protein deacetylase sirtuin-1 (Homo sapiens) (UniProt Q96EB6); experiment: Inhibition of SIRT1 (unknown origin) at 50 uM relative to control
T5 sequence (whole entry): T2 sequence (Q96EB6 whole entry)

[13] = molecular target: T6, NAD-dependent protein deacetylase sirtuin-2 (Homo sapiens) (UniProt Q8IXJ6); experiment: Inhibition of SIRT2 (unknown origin) at 50 uM relative to control
T6 sequence (whole entry): T3 sequence (Q8IXJ6 whole entry)

[14] = molecular target: T7, NAD-dependent protein deacetylase sirtuin-3, mitochondrial (Homo sapiens) (UniProt Q9NTG7); experiment: Inhibition of SIRT3 (unknown origin) at 50 uM relative to control
T7 sequence (whole entry): T4 sequence (Q9NTG7 whole entry)

[15] = molecular target: T7, NAD-dependent protein deacetylase sirtuin-3, mitochondrial (Homo sapiens); experiment: Inhibition of SIRT3 (unknown origin) at 10 uM relative to control
MOLM-13 = experiment: Cytotoxicity against human MOLM-13 cells; assay type: functional, cell-based
SKM-1 [16] = experiment: Induction of apoptosis in human SKM-1 cells at 20 uM relative to control; assay type: functional
OCI-AML2 [17] = experiment: Induction of apoptosis in human OCI-AML2 cells at 20 uM relative to control; assay type: functional
OCI-AML2 [18] = experiment: cells; settings: Homo sapiens
Description: Cytotoxicity against human OCI-AML2 cells

SKM-1 [19] = experiment: cells; settings: Homo sapiens
Description: Cytotoxicity against human SKM-1 cells

[20] = molecular target: T5, NAD-dependent protein deacetylase sirtuin-1 (Homo sapiens); experiment: Inhibition of SIRT1 (unknown origin) at 10 uM relative to control

T1 sequence (Q9NXA8 whole entry): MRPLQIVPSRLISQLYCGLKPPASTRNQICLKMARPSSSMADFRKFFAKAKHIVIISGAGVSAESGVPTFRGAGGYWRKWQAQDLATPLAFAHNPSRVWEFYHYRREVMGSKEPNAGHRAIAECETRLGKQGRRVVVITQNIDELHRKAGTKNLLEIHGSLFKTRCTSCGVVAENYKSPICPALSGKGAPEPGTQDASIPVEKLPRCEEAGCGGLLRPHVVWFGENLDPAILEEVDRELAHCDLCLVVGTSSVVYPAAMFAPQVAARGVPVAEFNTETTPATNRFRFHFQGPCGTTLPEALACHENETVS
NAD-dependent protein deacylase sirtuin-6, sequence (Q8N6T7 whole entry): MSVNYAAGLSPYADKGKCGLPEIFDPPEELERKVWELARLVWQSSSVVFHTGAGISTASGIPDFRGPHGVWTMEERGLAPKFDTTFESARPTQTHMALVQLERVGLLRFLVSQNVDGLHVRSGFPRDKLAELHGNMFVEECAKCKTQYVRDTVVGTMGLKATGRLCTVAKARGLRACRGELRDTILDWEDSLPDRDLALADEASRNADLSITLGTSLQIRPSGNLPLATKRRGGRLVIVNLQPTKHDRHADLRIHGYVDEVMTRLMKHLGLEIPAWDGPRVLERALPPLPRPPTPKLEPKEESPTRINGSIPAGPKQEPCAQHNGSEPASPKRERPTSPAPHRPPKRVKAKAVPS

In the case of CCCCC(CC(=O)NCCCC[C@H](NC(=O)[C@H](CC(C)C)NC(=O)[C@@H](NC(=O)CNC(=O)c1ccccc1)C(C)C)C(=O)N[C@@H](CCC(=O)O)C(=O)N[C@@H](Cc1ccc(O)cc1)C(=O)NCC(=O)N[C@H](C(N)=O)C(C)C)C(=O)O (some centres undefined) (Bz-GVLK(X3)EYGV-NH2), the Ki [1] is reported as 17.2 µM.

Work on N=C(N)NCCC[C@@H]1NC(=O)CCCCCCC(=O)NCCCC[C@@H](C(N)=O)NC(=O)[C@H](CCCCNC(=S)NCCC(=O)O)NC1=O yielded an IC50 [2] of 2.2 µM.

For O=C(NC1CCC1)[C@H](Cc1c[nH]c2ccccc12)NC(=O)[C@H](CCCCNC(=S)NCCc1nnn[nH]1)NS(=O)(=O)c1cccc(F)c1, the IC50 [3] was ≤ 0.05 µM and the Ki [4] was 0.0005 µM.

In the case of Cc1ccc(NC(=O)/C(C#N)=C/c2ccc(-c3cccc(C(=O)O)c3)o2)cc1C, the IC50 [5] is reported as 101 µM.

Compound O=C(NC1CCC1)[C@H](Cc1c[nH]c2ccccc12)NC(=O)[C@H](CCCCNC(=S)NCc1nnn[nH]1)NS(=O)(=O)c1cccc(F)c1 has an IC50 [6] of 5.1 µM.

In the case of CC(=O)N[C@H]1CCCCNC(=O)CCCCCC(=O)NCCCC[C@@H](C(=O)N[C@H](C(N)=O)[C@@H](C)O)NC(=O)[C@H](CCCCNC(=S)NCCC(=O)O)NC(=O)[C@H](CCCNC(=N)N)NC1=O (Ac-KR[X1]KT-NH2; linker 1-4 via Heptanedioyl), the IC50 [7] is reported as > 1000 µM, the IC50 [8] is reported as > 1000 µM and the IC50 [9] is reported as > 1000 µM. For the same compound, the IC50 [10] was > 1000 µM and the IC50 [11] was 7.5 µM.

In the case of CC(C)C[C@H](NC(=O)[C@@H](NC(=O)CNC(=O)c1ccccc1)C(C)C)C(=O)N[C@@H](CCCCNC(=O)CC(C)(C(=O)O)c1ccccc1)C(=O)N[C@@H](CCC(=O)O)C(=O)N[C@@H](Cc1ccc(O)cc1)C(=O)NCC(=O)N[C@H](C(N)=O)C(C)C (some centres undefined) (Bz-GVLK(X2)EYGV-NH2), the Ki [1] is reported as 4.3 µM, the inhibition [12] is reported as < 1% and the inhibition [13] is reported as 4%. The inhibition [14] was < 1%.

N=C(N)NCCC[C@@H]1NC(=O)CCC(=O)NCCCC[C@@H](C(N)=O)NC(=O)[C@H](CCCCNC(=S)NCCC(=O)O)NC1=O showed an IC50 [2] of 4 µM.

CC(=O)NCCCC[C@H](NC(=O)[C@H](CCCCNC(=S)NCCC(=O)O)NC(=O)C(CCCNC(=N)N)NC(C)=O)C(N)=O (some centres undefined) showed an IC50 [2] of 93.1 µM.

N#C/C(=C\c1ccc(-c2ccc(C(=O)O)cc2)o1)C(=O)Nc1ccc(C#N)c(C(F)(F)F)c1 was tested, and the IC50 [5] was 13.9 µM.

Compound N#C/C(=C\c1ccc(-c2ccc(C(=O)O)cc2)o1)C(=O)Nc1ccc(Cl)c(C(F)(F)F)c1 has an IC50 [5] of 16.4 µM.

In the case of O=C(NC1CCC1)[C@H](Cc1c[nH]c2ccccc12)NC(=O)[C@H](CCCCNC(=S)NCCc1cc(O)on1)NS(=O)(=O)c1cccc(F)c1, the IC50 [3] is reported as 0.29 µM and the inhibition [15] is reported as 40%.

In the case of O=C(O)CCNC(=S)NCCCC[C@H](NS(=O)(=O)c1cccc(F)c1)C(=O)N[C@@H](Cc1c[nH]c2ccccc12)C(=O)NC1CCC1, the Ki [4] is reported as 0.006 µM, the IC50 (MOLM-13) is reported as 29 µM and the Activity (SKM-1 [16]) is reported as >80%. For the same compound, the Activity (OCI-AML2 [17]) was 25%, the IC50 (OCI-AML2 [18]) was > 20 µM and the IC50 (SKM-1 [19]) was 10 µM.

O=C(NC1CCC1)[C@H](Cc1c[nH]c2ccccc12)NC(=O)[C@H](CCCCNC(=S)NCCc1noc(=O)[nH]1)NS(=O)(=O)c1cccc(F)c1 was tested, and the IC50 [3] was ≤ 0.05 µM and the inhibition [20] was 37%.
